Reference: patent US11147816B2, “Composition for inducing differentiation and protection of neural stem cells and method for inducing neuro-regeneration using the same composition” (GENUV Inc., priority 2016, dated 2021)

How the values were obtained:
[1] = tested on: 5XFAD mouse; test: TUNEL assay, neuroprotective activity (Example 10); assay type: in vivo; conditions: orally daily for 28 days, vs vehicle
Method: The sagittal brain tissue slides described in Example 8 were rehydrated and stained with the TUNEL assay kit (Promega, Wis., USA, cat#. G3250). Specifically, the brain tissue slides were permeabilized with 20 μg/ml proteinase K solution for 10 minutes, incubated with equilibration buffer for 10 minutes, and then incubated with TdT solution at 37° C. for 1 hour. The staining of the somatosensory cortex and subiculum area, areas known to show significant cell death in 5XFAD mouse, were observed. TUNEL assay was also performed on the tissue slides of normal adult mouse brain (as control) to confirm that staining was properly done.

[2] = tested on: 5XFAD mouse; test: BrdU staining in the hippocampal dentate gyrus (Example 9-3); conditions: orally daily for 28 days, vs vehicle
Method: For the BrdU staining to be performed later, 50 mg/kg of BrdU (Sigma, cat#. B5002) was added to the daily dose for the last 5 days. The mouse was then anesthetized and perfused with PBS for the extraction of the brain. Of the brains extracted from 3 mice of each group, half of the brain tissue (hemispheres) was immediately stored in the deep freezer for western blotting and ELISA experiments to be performed later. The other half of the hemispheres plus another 3 extracted mice brains per group were placed in 10% formalin solution at 4° C. for 1 day, which was then followed with the proceeding steps to allow good penetration of paraffin into the brain tissue. The brain tissues were immersed sequentially in 70%, 80%, 95%, 100% alcohol for 1 hour each for dehydration, then immersed in xylene 3 times for 1 hour each for clearing, and embedded in paraffin by placing in liquid paraffin 2 times for 1 hour each. After these procedures, the paraffin-embedded brain tissue (paraffin block) was cut into 5 μm sections, mounted on slides, and stored at room temperature. Prior to immunohistochemical staining, the tissues on the slides were rehydrated by sequentially immersing in xylene, 100%, 90%, 80%, 70%, 50% alcohol,and then water for 5 minutes each. […]

[3] = tested on: 5XFAD mouse; test: Cerebellar Purkinje cell Tuj1 and calbindin staining (Example 11); assay type: in vivo; conditions: particularly 0.1 mg/kg, orally daily for 28 days, vs vehicle
Excerpt: Two slides for Tuj1 staining and three for calbindin staining are shown for each treatment group.

[4] = tested on: 5XFAD mouse; test: Nissl, NeuN and DCX staining in the hippocampal dentate gyrus (Example 9-2); assay type: in vivo; conditions: orally daily for 28 days
Method: After placing in 0.1% cresyl violet (Sigma, cat#. C5042) solution at room temperature for 15 minutes, they were dehydrated by sequentially immersing in 80%, 90%, 100% alcohol, and xylene. Coverslips were put on the slides and the neurons examined.
NeuN staining was performed by the same method as described in Example 8 as was DCX staining, but using anti-DCX antibodies (Santa Cruz, cat#. sc271390) instead of anti-NeuN antibodies.

[5] = tested on: mouse embryonic neural stem cells; test: Immunocytochemistry analysis, Tuj1 and DAPI staining (Example 3); assay type: cell-based; conditions: 10 nM, 4 days
Method: Tuj1 (Neuron specific class III beta-tubulin) is a neuron specific marker protein, which was conjugated to rhodamine to show fluorescent red, while DAPI binds to the cell DNA and stains the cell nuclei fluorescent blue. […] The medium was removed and the cells were washed with PBS. After fixing with 10% formaldehyde (Sigma cat#. HT501128) at room temperature for 10 minutes, they were washed again with PBS. They were permeabilized with 0.2% Triton X-100 (Sigma, cat#. 93443) at room temperature for 15 minutes, washed with PBS, and incubated with 10% BSA (Sigma, cat#. A2153)+1% normal goat serum (Vector lab, Burlingame, Calif., cat#. S1000) at room temperature for 1 hour. […] The solution was removed, washed with PBS, and incubated at room temperature for 1 hour with the secondary antibody (rhodamine-conjugated antibody) diluted in 1% BSA+1% normal goat serum at a ratio of 1:200. Then, the cells were washed with PBS, incubated with 5 μg/ml DAPI (Sigma, cat#. D9542) for 5 minutes, washed with PBS again, and mounted on a slide glass for analysis with a fluorescent microscope.

[6] = tested on: mouse embryonic neural stem cells; test: qRT-PCR of relative mRNA expression of neuronal markers in mouse embryonic NSC (Examples 4-1, 4-2, 6); assay type: cell-based; conditions: 1 nM
Method: Isopropanol (Ducsan, GyunggiDo, Korea, cat#. 67-63-0) was added and mixed for RNA isolation, then centrifuged again to remove the supernatant and obtain the pellet. The RNA pellet was resuspended in 75% ethanol (Ducsan, cat#. 64-17-15), centrifuged, and the supernatant removed. The pellet was then resuspended in sterilized triple distilled water to obtain the mRNA, incubated for 10 minutes at 55° C., and stored at −80° C.
Sterilized triple distilled water, […] oligo dT, and 1 mM dNTP were added to the RNA and incubated for 5 minutes at 65° C. This was followed by the addition of 5X First-strand buffer, 10 mM DTT, and M-MLV reverse transcriptase and incubated at 42° C. for 1 hour, then at 72° C. for 15 minutes, and at 4° C. for 30 minutes. The synthesized cDNA was stored at −20° C.
The term relative mRNA expression level signifies that in order to normalize each group's total RNA level, the mRNA expression level of each differentiation marker is divided by the expression level of GAPDH whose expression level is fairly constant across cells, and then the values of each test material are compared with those of the controls (undifferentiated NSC) in each group.

[7] = tested on: pERK; test: Western blotting of pERK in brain hemispheres (Example 12); conditions: 0.1 mg/kg and 1.0 mg/kg orally daily for 28 days, vs vehicle
Method: The mouse was then anesthetized and perfused with PBS for the extraction of the brain. Of the brains extracted from 3 mice of each group, half of the brain tissue (hemispheres) was immediately stored in the deep freezer for western blotting and ELISA experiments to be performed later.
The powder was divided into 6 parts, put into new tubes, and placed back into the deep freezer. […] The powder was carefully suspended with a pipette in RIPA buffer, incubated on ice for 10 minutes, centrifuged at 13000 rpm, 4° C., and the supernatant was collected. […] The protein bands were detected with a photosensitive imaging system (FIG. 19a). In order to quantify the change in pERK expression, the expression levels of pERK and ERK were measured by densitometry, and the expression level of pERK was normalized against the expression level of ERK.

[8] = tested on: mouse adult neural stem cells; test: qRT-PCR of relative mRNA expression of neuronal markers in mouse adult NSC (Example 4-2); assay type: cell-based; conditions: 10 nM for 2 days
[9] = tested on: 5XFAD mouse; test: Tuj1 expression in the somatosensory cortex (Example 9-1); assay type: in vivo; conditions: 0.1 mg/kg orally daily for 28 days, vs vehicle
Method: Anti-Tuj1 antibodies were added to the brain tissue slides of 5XFAD mouse in Example 8 and incubated at 4° C. for 1 day, after which the tissue slides were fluorescently stained by incubating with Fluorescein isothiocyanate (FITC)-secondary antibodies (Invitrogen, cat#. A21121) at room temperature for 1 hour. In FIG. 15, the areas marked with arrows (→) indicate cells stained with Tuj1 and the areas marked with arrowheads (▾) indicate plaques formed by amyloid-beta aggregation. Plaques were present in both vehicle-treated and trametinib-treated groups.

[10] = tested on: mouse embryonic neural stem cells; test: Morphology analysis of NSC differentiation in mouse embryonic neural stem cells (Examples 1, 6); assay type: cell-based
Method: Neural stem cells were isolated from the brain of a day 14.5 mouse embryo, treated with 10 ng/ml human basic fibroblast growth factor (bFGF) (Peprotech, Princeton, NG, cat#.100-18B) and 20 ng/ml human epidermal growth factor (EGF) (Peprotech, cat#. AF-100-15) in a N2 culture medium, and cultured in suspension in a 25 cm2 flask (Nunc, Pittsburgh, Pa.) for 4 days. Formation of neurospheres was observed after 2 days.
In order to isolate single cells, 6-well plates were prepared the day before by treating the wells with 15 μg/ml poly-L-ornithine (Sigma, St. Louis, Mo., cat#.P2533) solution and incubating overnight at 37° C. for coating. The day of the single cell isolation, poly-L-ornithine solution was removed, the plates were washed with PBS three times, and 10 μg/ml fibronectin (Gibco, Waltham, Mass., cat#. 33016015) solution was added and incubated at 37° C. for 2 hours for coating.
Various concentrations of the compound of [Formula 1] […]

[11] = tested on: 5XFAD mouse; test: NeuN immunohistochemical staining, number of neurons in the Alzheimer's disease mouse model (Example 8)
Method: For the BrdU staining to be performed later, 50 mg/kg of BrdU (Sigma, cat#. B5002) was added to the daily dose for the last 5 days. The mouse was then anesthetized and perfused with PBS for the extraction of the brain. […] The other half of the hemispheres plus another 3 extracted mice brains per group were placed in 10% formalin solution at 4° C. for 1 day, which was then followed with the proceeding steps to allow good penetration of paraffin into the brain tissue. The brain tissues were immersed sequentially in 70%, 80%, 95%, 100% alcohol for 1 hour each for dehydration, then immersed in xylene 3 times for 1 hour each for clearing, and embedded in paraffin by placing in liquid paraffin 2 times for 1 hour each. After these procedures, the paraffin-embedded brain tissue (paraffin block) was cut into 5 μm sections, mounted on slides, and stored at room temperature. Prior to immunohistochemical staining, the tissues on the slides were rehydrated by sequentially immersing in xylene, 100%, 90%, 80%, 70%, 50% alcohol,and then water for 5 minutes each. […] The next day, the slides were incubated with anti-rabbit antibodies (Vector lab, cat#. PI-1000) at room temperature for 1 hour and then stained with DAB staining for the analysis of the neuronal distribution in the brain.
FIG. 12b indicates the number of NeuN stained cells counted and represented as the percentage of the number of cells per unit area in the somatosensory cortex layer 5 region. Area samples were taken from 3 areas per mouse, 3 mice per group, so the number of cells counted was from a total of 9 areas.
FIG. 13b indicates the number of NeuN stained cells counted and represented as the percentage of the number of cells per unit area in the motor cortex layer 5 region. Area samples were taken from 6 areas per mouse, 3 mice per group, so the number of cells counted was from a total of 18 areas.
FIG. 14b indicates the number of NeuN stained cells counted and represented as the percentage of the number of cells per unit area in the dotted area of the hippocampal subiculum shown in FIG. 14a. Area samples were taken from 3 areas per mouse, 3 mice per group, so the number of cells counted was from a total of 9 areas.

[12] = 10 nM, 25 nM, 100 nM for 2 days
[13] = 0.1 mg/kg and 1.0 mg/kg orally daily for 28 days, vs vehicle

SMILES: CC(=O)Nc1cccc(-n2c(=O)n(C3CC3)c(=O)c3c(Nc4ccc(I)cc4F)n(C)c(=O)c(C)c32)c1 [trametinib, N-(3-{3-cyclopropyl-5-[(2-fluoro-4-iodophenyl)amino]-6,8-dimethyl-2,4,7-trioxo-3,4,6,7-tetrahydropyrido[4,3-d]pyrimidin-1(2H)-yl}phenyl)acetamide]
- number of TUNEL stained cells in the somatosensory cortex and subiculum [1]: significantly lower
- number of BrdU stained cells in the dentate gyrus [2]: an increase in the number of cells stained with BrdU
- Purkinje cell axon structure [3]: increased axon arborization or at least with preserved axon structure
- immature neurons stained by DCX in the dentate gyrus [4]: seen to be present
- number of cells with morphology of Type 2 or Type 3 cells in the subgranular zone of the dentate gyrus (Nissl, NeuN) [4]: increased considerably
- neuron differentiation by Tuj1 staining [5]: showed increasingly active differentiation activity
- differentiation-inducing effect (Tuj1, TH mRNA) [6]: exerted its differentiation-inducing effect
- mRNA expression of GABAergic neuron marker Gad1 [6, 12]: increased with the increase in concentration of the trametinib added
- mRNA expression of cholinergic neuron marker ChAT [6, 12]: increased with the increase in concentration of the trametinib added
- mRNA expression of dopaminergic neuron marker TH [6, 12]: increased with the increase in concentration of the trametinib added
- mRNA expression of motor neuron marker Isl1 [6, 12]: increased with the increase in concentration of the trametinib added
- protein level of pERK in the brain [7]: considerably lower
- mRNA expression of cholinergic neuron marker ChAT [8]: increased the expression
- mRNA expression of dopaminergic neuron marker TH [8]: increased the expression
- mRNA expression of neuronal marker Tuj1 [8]: increased the expression
- number of cells stained with Tuj1, somatosensory cortex [9]: significant increase in the number of cells stained with Tuj1
- differentiation of NSC into neurons (morphology) ([10]; 10 nM, 25 nM and 100 nM, added daily, 4 days): readily induced the differentiation of NSC into neurons
- NSC differentiation-inducing effect (morphology) ([10]; 0.1 μM, day 2 of culture): excellent NSC differentiation-inducing effect
- concentration at which the differentiation-inducing effect is seen ([10]; added daily, 4 days of culture): ≥ 10 nM
- number of NeuN stained neurons, hippocampal subiculum [11, 13]: significant increase in the number of neurons
- number of NeuN stained neurons, motor cortex layer 5 [11, 13]: significant increase in the number of neurons
- number of NeuN stained neurons, somatosensory cortex layer 5 [11, 13]: significant increase in the number of neurons stained with NeuN
- dose showing neural stem cell differentiation-inducing activity ([11]; 5xFAD mouse experiments): 0.1 mg/kg/day
